Measurements from ChEMBL document CHEMBL3507680, “University of Dundee, Gates Library screen for HepG2 cell viability”.

Assay: Human HepG2 cell viability assay in 384 well format
Format: toxicity, cell-based
Set-up: dose 125 nL, time 70.5 hour; concentration not given beside the values
Details: HepG2 cells, read-out: Inhibition

SMILES	cytotoxicity at 70.5 h
CC(C)(C)C(=O)Nc1cnn(-c2ccccc2S(C)(=O)=O)c1	-9.09%
CCc1ccc(S(=O)(=O)Nc2ccncc2)s1	-5.81%
Cc1c(C[S+](C)[O-])cccc1NC(=O)c1cc(Cl)ccn1 (stereo not given)	-2.39%
CN1CCN(C2CCN(CC(O)c3ccccc3F)CC2)C1=O (stereo not given)	16.4%
N#Cc1cnc2c(F)cc(F)cc2c1NC1CCN(CC(N)=O)CC1	-5.14%
CCc1ccc(S(=O)(=O)Nc2cnccc2C)s1	-4.13%
CCS(=O)(=O)N1CCN(C(C)(C)CO)CC1	-3.71%
CCn1c(C)cc(C(=O)Nc2ccccc2CN(C)C(C)=O)c1C	-9.11%
CN(CC(C)(CO)CO)C(=O)Nc1cc(Cl)cc(Cl)c1	-4.43%
CN(Cc1ccc(Br)c2cccnc12)S(C)(=O)=O	12.8%
OCCN(CCO)Cc1ccc(Br)c2cccnc12	-1.86%
CC(NCCCN1CCCC1=O)c1cc(Br)ccc1F (stereo not given)	-5.24%
Cc1cc(CN2CCN(Cc3ccc(C#N)cc3OC(F)F)CC2)no1	18.7%
CCN(CCO)Cc1ccc(Br)c2cccnc12	-1.88%
CC(NCC1(N(C)C)CCOCC1)c1ccc(SC(F)F)cc1 (stereo not given)	2.6%
CN(Cc1nnc(C2CC2)o1)Cc1ccccc1N1CCOCC1	-4.09%
COCCCS(=O)(=O)N1CCN(C(C)(C)CO)CC1	-7.76%
Cc1ccc(S(=O)(=O)NC(CO)CC(C)C)cc1N(C)C (stereo not given)	-3.97%
CC(C)Nc1nnc(SCc2nnc(C(C)(C)C)o2)s1	-6.2%
CN(Cc1c(F)cccc1Cl)C(=O)Cn1cnc(C#N)n1	-7.04%
Cc1ccc(OCC(=O)Nc2ccc(S(C)(=O)=O)cc2)cc1C	14%
O=C(NCCN1CCOCC1)c1cnc(-c2ccccc2F)s1	-3.87%
CCc1nnc2n1CCN(C(=O)C1CCC(n3cccc3)CC1)C2 (stereo not given)	-6.9%
Cn1ccc(C(=O)Nc2nccn2Cc2ccccc2Cl)cc1=O	-7.59%

SMILES	cytotoxicity at 70.5 h
Cc1nccn1-c1ccc(NS(=O)(=O)c2cccnc2)cn1	-1.79%
CC(Cc1ccccc1F)C(=O)Nc1ccc(OCCC(N)=O)cc1 (stereo not given)	-3.92%
CS(=O)(=O)CCC(=O)Nc1nccn1Cc1ccccc1Cl	0.444%
CCN(CC)S(=O)(=O)CC(=O)N1CCc2ccc(C)cc21	-7.29%
N#Cc1ccc(F)c(CNc2ccc(F)cc2OCCO)c1	16.6%
CC(C)N1CCC(CNC(=O)CCc2cc(F)ccc2F)C1 (stereo not given)	14.8%
Cc1cc(CN(C2CC2)C(C)C(C)C)on1 (stereo not given)	1.68%
COCCN(CCOC)C(=O)c1ccn(-c2ccccc2Cl)n1	17.5%
Cc1nc(CN2CCCN(C(=O)c3cccn3C)CC2)cs1	1.17%
COc1cc2c(nn1)CCN(Cc1nnc(Cc3ccccc3)o1)C2	-3.6%
COC(=O)C(C)N(Cc1cc(C)on1)C1CC1 (stereo not given)	-5.22%
CNC(=O)N1CCOCC1c1c(C)nn(C)c1C (stereo not given)	2.35%
Cc1noc(C)c1C(=O)N(C)C(C)c1ccncc1 (stereo not given)	-5.68%
O=C(NCC1CCOC1)c1cc(-c2ccc(F)cc2)[nH]n1 (stereo not given)	-10.8%
O=C1NCCCCC1NC(=O)N1CCCc2ccccc21 (stereo not given)	-12.7%
CC(Oc1cccc(Cl)c1)C(=O)Nc1cnn(CC(=O)NC2CC2)c1 (stereo not given)	-17.2%
CC(NC(=O)NC1CCN(Cc2ccncc2)CC1)c1cccc(F)c1 (stereo not given)	-6.53%
CN(C)c1cccc(C(=O)Nc2cnn(Cc3ccncc3)c2)c1	-11.3%
CS(=O)(=O)c1ccc(CNC(=O)NCc2cc[nH]n2)cc1	-12.3%
Cc1ccc(-c2cc(C(=O)NCC3CCOC3)n[nH]2)s1 (stereo not given)	20.2%
CC(C)c1noc(C(C)N2CCC(c3nc4ccccc4[nH]3)CC2)n1 (stereo not given)	-7.42%
Cc1ccc(F)c2c1N(C(=O)c1ccc(S(C)(=O)=O)cc1)CCC2	-10.6%
Cc1ccc(-c2nc(C(=O)N(C)CC(=O)N(C)C)cs2)c(C)c1	20.9%
Cc1noc(C(C)N2CCC(c3nc4ccccc4[nH]3)CC2)n1 (stereo not given)	-3.97%

SMILES	cytotoxicity at 70.5 h
CC(=O)NCc1ccc(C(=O)N2CCCc3c(F)ccc(C)c32)o1	-2.6%
CC(C)Cn1cc(NC(=O)c2cccc(N(C)C)c2)cn1	-8.55%
O=C1OCCCN1Cc1nc(-c2ccncc2)no1	-12.6%
CN(c1ncc(S(N)(=O)=O)s1)C1CCc2ccccc2C1 (stereo not given)	-10%
CNS(=O)(=O)CC(=O)N(C1CC1)C1Cc2ccccc2C1	-13.4%
Cc1ccccc1Cc1nc(CSc2nnc(N)n2C2CC2)no1	-12.1%
CCSc1cc(C(=O)N(CC(F)F)C(C)C)ccn1	-3.2%
C=C(C)CN(CC)C(=O)CN1CCCC1C(=O)N(C)C (stereo not given)	-4.6%
CCn1cc(CN2CCN(C(=O)N3CCOCC3)CC2)cn1	16.2%
CC(C)CN(C)S(=O)(=O)c1ccc(Cl)cc1C#N	34.3%
CCC(CNC(=O)Cn1ccnc1)Oc1cccc(F)c1 (stereo not given)	21.1%
NC(=O)C(NCc1cccs1)c1ccccc1 (stereo not given)	-9.69%
O=C(NCc1cccnc1OCC(F)(F)F)N1CCOCC1	7.44%
COc1ncccc1CNC(=O)N1CCC(CN2CCOCC2)CC1	13.3%
CC(C)Oc1ncccc1CNC(=O)N1CCOCC1	-14.9%
Cc1occc1C(=O)NCC(=O)N(C)CCCOc1ccc(F)cc1	-6.91%
Cc1cc(C)c(CNC(=O)NCCc2cccnc2)c(=O)[nH]1	-10.1%
CCCC(C#N)NC(=O)CCCOc1cccc(F)c1 (stereo not given)	-9.46%
c1ccc2sc(N3CCCC(Cn4cncn4)C3)nc2c1 (stereo not given)	-6.17%
Cn1cccc(NC(=O)NCCc2cccc(O)c2)c1=O	9.38%
Cn1cccc(NC(=O)NCc2cccc(CO)c2)c1=O	7.6%
O=C(NCCc1nnc[nH]1)Nc1cccc(SC(F)F)c1	-9.47%
CCS(=O)(=O)N1CCc2c(cccc2NCc2nc(C)c(C)o2)C1	19.1%
CCC(CNC(=O)c1ccc(C(N)=O)cc1)Oc1cccc(F)c1 (stereo not given)	-1.85%

SMILES	cytotoxicity at 70.5 h
Cc1nc(CC2CCCN(Cc3nc4ccccc4c(=O)[nH]3)C2)no1 (stereo not given)	-7.59%
CCC(O)CN(c1ccccc1)S(=O)(=O)c1cnc(C)s1 (stereo not given)	18.5%
CCc1cnc(CNc2cccc3c2CCN(S(=O)(=O)CC)C3)o1	-2.87%
CCN(CC)C(=O)N1CCN(CCc2ccncc2)CC1	-7.09%
CC(=O)c1cccc(OCCCC(=O)NC(C#N)CC(C)C)c1 (stereo not given)	-9.77%
CCn1cc(CN2CCCN(C(=O)C3(C)CCOCC3)CC2)cn1	-10.2%
Cc1occc1C(=O)NCC(=O)N(C)CCCOc1ccccc1	-1.18%
CCCN(CC1COc2ccccc2O1)C(=O)c1ncoc1CC (stereo not given)	-7.46%
O=C(NCc1nc(C2CC2)no1)N1CCOC(c2ccccc2)C1 (stereo not given)	-13.1%
CCN(CC)CC(=O)N1CCN(CCCc2ccncc2)CC1	-0.476%
NC(=O)N1CCCC(C(=O)NCCOc2ccc3c(c2)OCO3)C1 (stereo not given)	2.99%
COC(=O)c1cccc(S(=O)(=O)Nc2ccc(F)c(C(N)=O)c2)c1	14.1%
CC(NC(=O)Nc1cccnc1N1CCCC1)c1ccccn1 (stereo not given)	-17.8%
NC(=O)CC1CCN(c2ncnc3cccc(F)c23)CC1	-3.61%
CSCc1ccc(CNCCN2CCOCC2)o1	-12.8%
Cc1oc(C)c(C(=O)NS(=O)(=O)c2ccc3c(c2)OCCCO3)c1C	-27.5%
Cc1noc(C(C)N2CCN(CCc3ccncc3)CC2)n1 (stereo not given)	-4.19%
CC(NC(=O)Nc1cccnc1N1CCOCC1)c1ccccc1 (stereo not given)	-8.45%
N#CC1(NC(=O)c2nccc3ccccc23)CCC2(CC1)OCCO2	-25.4%
Cc1noc(C)c1CN1CCC(NC(=O)OC(C)(C)C)CC1	-0.745%
Cc1cc(Cn2cc(C#N)c(=O)c3ccccc32)no1	-5.19%
Cc1cc(Cn2cc(C#N)c(=O)c3ccccc32)on1	8.12%
COC(=O)C1CCN(C(=O)NCC(C)Cc2cccs2)CC1 (stereo not given)	-14.5%
CCOCCN1CCN(C(C)C(=O)Nc2ccnn2C(C)C)CC1 (stereo not given)	-3.46%

SMILES	cytotoxicity at 70.5 h
CC(NCc1ccco1)c1nnc2n1CCCC2 (stereo not given)	-5.13%
CCN(CC)C(=O)CCNC(=O)N(C)Cc1ccc(SC)c(OC)c1	-11.2%
CCCn1nc2c(cc1=O)CN(Cc1ccccn1)CC2	0.0556%
NCC1(c2cccc(C(F)(F)F)c2)CC1	13.4%
CC(=O)c1cccc(NC(=O)CN2CCCC(C3OCCO3)C2)c1 (stereo not given)	-7.07%
CC(=O)c1cccc(NC(=O)CN2CCCCC2C)c1 (stereo not given)	-2.56%
CCOc1cc(/C=C/c2ncc(C(=O)NC)s2)ccc1OC	-13.2%
COc1ccc(NC(=O)CCC(C)C)c(N2CCN(C(C)=O)CC2)n1	-13.6%
COC(=O)CCNC(=O)c1nnn(-c2ccc(F)cc2)c1C1CC1	-10.2%
COc1ccc(N)c(N2CCN(C(C)=O)CC2)n1	-11%
CNS(=O)(=O)c1cccc(C(C)NCc2cccc(O)c2)c1 (stereo not given)	-11.9%
Cc1ccc(C(CNCc2ncc[nH]2)N2CCOCC2)s1 (stereo not given)	-12.7%
Cc1ccc(C(CNCc2ccc(C#N)cc2)N2CCOCC2)s1 (stereo not given)	-3.96%
CCC(=O)N1CCCN(c2cncc(-n3nc(C)cc3C)n2)CC1	-4.7%
Cc1cc(C)n(-c2cncc(N3CCN(C(=O)C(C)C)CC3)n2)n1	-4.92%
COCc1nc2cc(NCc3scnc3C)ccc2o1	-5.1%
NC(=O)NC(=O)Cn1ccc2sccc2c1=O	-5.03%
COCc1nc2cc(NCc3ncc[nH]3)ccc2o1	-3.38%
CNS(=O)(=O)c1cccc(C(C)NCc2ccc(C)o2)c1 (stereo not given)	-2.97%
CCC(=O)N1CCCN(C(=O)C2SCCc3sccc32)CC1 (stereo not given)	3.13%
CN(CC(=O)Nc1cccnc1)CC1CCCN1c1cccnn1 (stereo not given)	-7.79%
CNS(=O)(=O)c1cccc(C(C)NCc2ccccc2OC)c1 (stereo not given)	-4.76%
Cc1cc(NC(=O)CN(C)CC2CCCN2c2cccnn2)n(C)n1 (stereo not given)	-5.26%
CCCn1cc(CNCC(c2ccc(C)s2)N2CCOCC2)cn1 (stereo not given)	8.59%
